Assay results published in patent publication US20250270159A1, “1-(CYCLOBUTANEMETHYLIDENE)-2, 4, 5-TRIMETHOXYBENZENE COMPOUND AND PREPARATION METHOD AND USE THEREOF” (CHENGDU XINRUI TAIKANG TECHNOLOGY CO., LTD., priority 2023, published 2025).

Columns and labels:
[1] = test system: rat model of lithium-pilocarpine-induced epilepsy; assay: Rat model of lithium-pilocarpine-induced epilepsy (SE), highest seizure grade score; assay type: in vivo, Sprague Dawley (SD) rats; conditions: 300 mg/kg oral gavage, 1 h after SE onset; acute phase; Racine 0-6
Method: (1) Experimental Animals: SPF Adult Male Sprague Dawley (SD) Rats, with a Weight of 200-250 g.
Methylscopolamine bromide, lithium chloride, and pilocarpine were weighed, and experimental drugs were dissolved to working concentrations (100 mg/mL of lithium chloride solution, 1 mg/mLof methylscopolamine bromide solution, and 20 mg/mL of pilocarpine solution) with 0.9% saline. Rats were injected intraperitoneally with lithium chloride (a dose of 127 mg/kg), and 18-20 h later, scopolamine methylbromide (a dose of 1 mg/kg) was injected intraperitoneally. […] Thereafter, an additional dose of 10 mg/kg pilocarpine was injected intraperitoneally every 30 min until the onset of a grade IV or higher status epilepticus (SE)-like seizure without significant intermittent intervals, with a maximum dose of 60 mg/kg.
Model inclusion criterion: experimental animals presenting continuous seizures of grade IV or higher for 1 h was judged as successful modeling.
The rats with successful modeling were randomly divided into three groups, namely a model group, a CTMB group, and a sodium valproate (VPA) group. […]
Referring to the grading scale of Racine scores, the seizure symptoms of each group of rats after the drug intervention were observed, and the seizure grades of each group of rats in the acute phase were recorded. […]

[2] = test system: Parkinson's disease (PD) mice, 6-OHDA method; assay: 6-OHDA Parkinson's disease mice, rod-climbing experiment; assay type: in vivo, C57 mice; conditions: Group L, levodopa: benserazide hydrochloride=4:1, 12 mg/kg ip
Method: (§1) The mice were randomly divided into a sham operation group (group S, given a blank emulsion with a volume equal to that of the administered group), a model group (group M, given a blank emulsion with a volume equal to that of the administered group), a CTMB group (20 mg/kg, group D), and a levodopa group (levodopa: benserazide hydrochloride=4:1, 12 mg/kg, group L), each group included 10-12 mice, and all of them were administered intraperitoneally.
(§2) Preoperatively, mice were fasted for 12 h, and mice were anesthetized with 4% isoflurane induction and maintained with 1.5% isoflurane. The mice were subsequently immobilized on a brain stereotaxic apparatus. The bregma and lambda points were exposed by gently wiping the cranial surface with a cotton swab after cutting the scalp. The stereotaxic apparatus was adjusted to align the heights of the bregma and lambda points, thereby leveling the skull. The bregma point was designated as the origin, the coordinates where the injection site was located were located, and the drill was used to drill a small hole in the skull above the injection site.
(§3) 6-OHDA (12.5 μg/μL) was injected into the striatum region (AP+0.5 mm; ML+2.00 mm; DV-3.00 mm and-2.00 mm) of the mice, and 1 μL 6-OHDA was injected into each of the two points at a rate of 0.5 μL/min. The needle was left in place for 3 min after the injection was completed, and then the injection needle was lifted, and the scalp of the mice was sutured and disinfected. The sham operation group was injected with an equal volume of saline containing 0.02% ascorbic acid, and other operations were performed as above. After the procedure, the mice were placed in the cage at an appropriate temperature. After awakening from anesthesia, the mice were kept normally.
The rod-climbing experiment: the rod-climbing experiment was mainly used to test the limb movement ability of mice and to assess the symptoms of motor delay. This experiment evaluated the ability of mice to grasp and maneuver on a pole to descend to their home cage. A cork ball was fixed to an iron pole with a diameter of 1 cm and a length of 65 cm. The head of the mice was put down on the top of the pole, and the mice usually naturally descended down along the pole to return to their cage. The time for the mice to descend to the bottom was recorded. Results were averaged over 3 consecutive measurements.
(§4) The motor function of the mice was comprehensively assessed using the rod-climbing experiment and the hanging experiment at 1, 2, 3, and 4 weeks after drug administration.

[3] = test system: Parkinson's disease (PD) mice, 6-OHDA method; assay: 6-OHDA Parkinson's disease mice, hanging experiment; assay type: in vivo, C57 mice; conditions: Group L, levodopa: benserazide hydrochloride=4:1, 12 mg/kg ip, cut-off 60 s
Method: as §1, §2, §3
The hanging experiment: normal mice have climbing activity, which requires proper grip strength and motor coordination, so the hanging experiment may be used to examine motor dysfunction in mice. A metal rod with a diameter of 1.5 mm was placed horizontally on top of the box, and a distance from the metal rod to the bottom of the box was 30 cm. […] Measurement was performed twice, with an interval of 1 min or more between each test, and the results were averaged over the two times.
as §4

[4] = test system: neurons in the substantia nigra region of the midbrain of PD mice; assay: Niehl's staining, number of neuronal Niehl's bodies in substantia nigra of PD mice; assay type: in vivo, C57 mice; conditions: Group L, levodopa: benserazide hydrochloride=4:1, 12 mg/kg ip, after 4 weeks of administration
Method: as §1
(§5) After completing the evaluation of motor function after 4 weeks of drug administration, the mice were deeply anesthetized, perfused with 20 mL of saline and 20 mL of 4% paraformaldehyde via the heart, and the brains were rapidly severed and extracted from the head, which were then preserved and fixed in 4% paraformaldehyde for 72 h after removal, and then embedded with paraffin to prepare the slices with a thickness of 4 μm for subsequent pathological and histological studies.
Niehl's staining was used to identify Niehl's bodies in neuronal cells.

[5] = test system: neurons of substantia nigra region and striatum of PD mice; assay: HE staining of substantia nigra and striatum of PD mice; assay type: in vivo, C57 mice; conditions: Group L, levodopa: benserazide hydrochloride=4:1, 12 mg/kg ip, 4 weeks; compared with model group; FIG. 5-7
Method: as §1, §5
Hematoxylin-eosin (HE) staining may be used to observe changes in the pathological condition of brain tissue. […]

[6] = test system: Tyrosine hydroxylase (TH) protein expression; assay: TH protein expression by immunohistochemistry in substantia nigra of PD mice; assay type: in vivo, C57 mice; conditions: Group L, levodopa: benserazide hydrochloride=4:1, 12 mg/kg ip, after 4 weeks of administration
Method: as §1, §5
Tyrosine hydroxylase (TH) protein expression was detected by immunohistochemistry. […]

Row | SMILES | Seizure grade score (highest, SE model rats) [1] | Rod-climbing time, 1 week of administration [2] | Rod-climbing time, 2 weeks of administration [2] [s] | Rod-climbing time, 3 weeks of administration [2] [s] | Rod-climbing time, 4 weeks of administration [2] [s] | Rod-climbing time, Before administration ([2]; baseline 2 weeks after 6-OHDA) [s] | Hanging time, Before administration ([3]; baseline 2 weeks after 6-OHDA) [s] | Hanging time, 1 week of administration [3] [s] | Hanging time, 2 weeks of administration [3] [s] | Hanging time, 3 weeks of administration [3] [s] | Hanging time, 4 weeks of administration [3] [s] | Number of Niehl's bodies [4] | degree of pathological damage to the substantia nigra region and striatum [5] | TH-positive neurons (a percentage of TH-positive neurons to uninjured side, %) [6] [%]
1 | CCCC(CCC)C(=O)[O-].[Na+] [VPA, sodium valproate, reference compound] | 5.00 ± 0.00 | – | – | – | – | – | – | – | – | – | – | – | – | –
2 | N[C@@H](Cc1ccc(O)c(O)c1)C(=O)O [levodopa, Levodopa, reference compound] | – | 6.39 ± 1.18 ^ s | 5.79 ± 0.49 | 5.34 ± 0.84 | 4.93 ± 0.59 | 9.63 ± 2.53 | 43.7 ± 19.5 | 54.4 ± 8.0 | 47.0 ± 16.2 | 48.2 ± 18.1 | 50.3 ± 12.9 | 57.8 ± 6.5 | reduced | 18.8 ± 7.6
